{"source": "patent US20190374506A1", "about": "“COMPOSITIONS AND METHODS FOR TREATING CANCER” (BETH ISREAL DEACONESS MEDICAL CENTER, priority 2016, published 2019)", "key": {"LNCaP cells (PTEN-null)": {"test_system": "LNCaP cells (PTEN-null)", "test": "Cell growth, LNCaP cells", "format": "cell-based, human", "excerpt": "(§1) Whether targeting WWP1/NEDD4-1, thereby enhancing PTEN dimerization and function, could offer a unique opportunity to treat MYC-driven cancers was investigated. […] As there is no small pharmacological inhibitor currently available to suppress/inhibit WWP1 activity, Indole-3-Carbinol (I3C), a potential WWP1 inhibitor, which suppresses the WWP1 activity through binding to its HECT domain, was used. First, to assess the on-target effects of I3C towards WWP1, Wwp1^−/− MEFs were used. […] Additionally, two independent PTEN stably knocked-down cells were generated."}, "[1]": {"test_system": "PTEN/AKT pathway in DU145 cells (PTEN competent)", "test": "Western blot analysis of PTEN/AKT pathway in DU145 cells", "format": "cell-based, human", "conditions": "different doses of I3C for 3 Days", "procedure": "FIG. 11B provides an analysis of effects of I3C on PTEN/AKT pathway in DU145 or PC3 cells by western blot analysis. Cells were treated with different doses of I3C for 3 Days, and followed by western blot analysis. Whether targeting WWP1/NEDD4-1, thereby enhancing PTEN dimerization and function, could offer a unique opportunity to treat MYC-driven cancers was investigated. […] As there is no small pharmacological inhibitor currently available to suppress/inhibit WWP1 activity, Indole-3-Carbinol (I3C), a potential WWP1 inhibitor, which suppresses the WWP1 activity through binding to its HECT domain, was used. First, to assess the on-target effects of I3C towards WWP1, Wwp1^−/− MEFs were used. […] Additionally, two independent PTEN stably knocked-down cells were generated. […] Western Blotting and Immunoprecipitation. For western blotting, cells were lysed in RIPA buffer (Boston BioProducts) supplemented with protease (Roche) and phosphatase (Roche) inhibitor. Proteins were separated on NuPAGE 4-12% Bis-Tris gradient gels (Invitrogen), transferred to polyvinylidine difluoride membranes (Immobilon P, Millipore) and the blots were probed with the indicated antibodies. For immunoprecipitation, PC3, 293T and MEF cells were transfected with the indicated expression vectors by using LIPOFECTAMIN 2000 (Life Technologies). 24 hours after transfection, cells were lysed in RIPA buffer with protease (Roche) and phosphatase (Roche) inhibitor. 500 μg of total lysates were pre-cleared for 30 minutes at 4° C., and then immunoprecipitated with anti-Myc (Cell Signaling Technology 9B11, 1:500), or anti-PTEN (Cell Signaling Technology 9559, 1:500) antibody overnight at 4° C. The Protein-A or Protein-G sepharose beads (GE Healthcare) were then added and incubated for another 2 hours. The immunoprecipitates were washed with RIPA buffer three times. In denaturing conditions, standard Laemmli-Buffer with 5% final concentration of β-mercaptoethanol was added to the samples, which were then boiled and separated on NuPAGE 4-12% Bis-Tris gradient gels (Invitrogen). […]"}, "[2]": {"conditions": "literature statement; cited from earlier work"}, "PC3 cells (PTEN-null)": {"test_system": "PC3 cells (PTEN-null)", "test": "Growth curves, colorimetric MTT assay, PC3 cells", "format": "cell-based, human", "conditions": "various doses of I3C for 5 Days", "excerpt": "as §1, with “FIG. 11C provides growth curves of DU145 (PTEN competent) or PC3 cells (PTEN null) treated with various doses of I3C for 5 Days, and then assayed with colorimetric MTT assay (three experiments). Whether” for “Whether”"}, "DU145 cells": {"test_system": "DU145 cells", "test": "Growth curves, colorimetric MTT assay, DU145 cells", "format": "cell-based, human", "conditions": "various doses of I3C for 5 Days", "excerpt": "as §1, with “FIG. 11C provides growth curves of DU145 (PTEN competent) or PC3 cells (PTEN null) treated with various doses of I3C for 5 Days, and then assayed with colorimetric MTT assay (three experiments). Whether” for “Whether”"}, "[3]": {"test_system": "PTEN subcellular localization in DU145 cells", "test": "Confocal immunofluorescence of PTEN subcellular localization in DU145 cells", "format": "cell-based, human", "conditions": "20 μM I3C for 4 Days", "procedure": "FIG. 10D provides a panel of micrographs showing the effects of I3C on PTEN subcellular localization in DU145 cells. DU145 cells treated with 20 μM I3C for 4 Days. Confocal images of DU145 cells treated with/without I3C were stained with DAPI and the indicated antibodies. Bar, 20 μm. Whether targeting WWP1/NEDD4-1, thereby enhancing PTEN dimerization and function, could offer a unique opportunity to treat MYC-driven cancers was investigated. […] As there is no small pharmacological inhibitor currently available to suppress/inhibit WWP1 activity, Indole-3-Carbinol (I3C), a potential WWP1 inhibitor, which suppresses the WWP1 activity through binding to its HECT domain, was used. First, to assess the on-target effects of I3C towards WWP1, Wwp1^-/- MEFs were used. […] Additionally, two independent PTEN stably knocked-down cells were generated. […] PC3 and DU145 cells stably expressing the indicated constructs were plated on coverslip. The following day, cells were washed with ice-cold PBS, fixed in 4% paraformaldehyde, permeabilized with 0.02% Triton X-100, and then blocked with PBS supplemented with 20% goat serum. Cells were incubated with anti-PTEN antibody (6H2.1, 1:100) from Cascade Bioscience, diluted in PBS containing 10% goat serum overnight and then with Alexa488-conjugated secondary antibody together with 1 μg/ml of DAPI for 1 hour. Images were acquired with a […] […]"}}}
{"smiles": "OCc1c[nH]c2ccccc12", "note": "[I3C, indole-3-carbinol]", "values": [{"measurement": "cell growth", "setting": "LNCaP cells (PTEN-null)", "result": "only modestly suppressed cell growth"}, {"measurement": "AKT activation", "setting": "[1]", "result": "dose-dependent AKT suppression"}, {"measurement": "PTEN protein level", "setting": "[1]", "result": "without affecting PTEN protein level"}, {"measurement": "apoptosis", "setting": "[1]", "result": "concomitant induction of apoptosis"}, {"measurement": "toxicity", "setting": "[2]", "result": "negligible toxicity"}, {"measurement": "cell growth", "setting": "PC3 cells (PTEN-null)", "result": "only modestly suppressed cell growth"}, {"measurement": "cell growth", "setting": "DU145 cells", "result": "drastic inhibition of cell growth"}, {"measurement": "PTEN plasma membrane localization", "setting": "[3]", "result": "induced its plasma membrane accumulation"}]}
